Experimental data from patent publication US10857127B2, “Vaginal delivery systems containing selective estrogen receptor modulator (SERM) and uses thereof” (Azure Biotech, Inc., priority 2016, dated 2020).

Assays:
[1] = Peroxide value of excipients at the opening of the container; assay type: physicochemical; settings: measured after opening the container
[2] = Dissolution studies of Lasofoxifene in organic solvents and surfactants; assay type: physicochemical; settings: Lasofoxifene 1 mg/ml in the labelled solvent/surfactant; visual examination
[3] = as above; assay type: physicochemical; settings: visual examination
Protocol: The solubility of Lasofoxifene was investigated by screening various organic solvents and surfactants in increasing concentrations. The term “formulation” may refer to a pharmaceutical composition comprising […] pharmaceutically acceptable excipients.
First, 1 mg of Lasofoxifene was weighed into Eppendorf vessels and 500 μl of organic solvents and surfactants as listed in Table 20 were added. In cases of insufficient dissolution of the API, samples were treated with ultrasound for 30 min and, if necessary, heated to 50° C. while shaking (300 rpm). Afterwards, samples were examined visually regarding drug dissolution. In case of entire dissolution, the experiment was repeated with increasing drug concentrations until maximum dissolution was achieved. In addition, further organic solvents and surfactants were tested.

[4] = hydroperoxides, cited from earlier work; for Average HPO: average of lots tested; for High HPO Lot: highest lot; for Low HPO Lot: lowest lot

| Compound | Peroxide value [1] [µmol] | Dissolution of Lasofoxifene in various organic solvents and surfactants, 1 mg/ml [2] | Dissolution of Lasofoxifene in various organic solvents and surfactants, 2 mg/ml ([3]; Lasofoxifene 2 mg/ml in the labelled solvent/surfactant) | Dissolution of Lasofoxifene in various organic solvents and surfactants, 3 mg/ml ([3]; Lasofoxifene 3 mg/ml in the labelled solvent/surfactant) | Dissolution of Lasofoxifene in various organic solvents and surfactants, 6 mg/ml ([3]; Lasofoxifene 6 mg/ml in the labelled solvent/surfactant) | Average HPO [4] [nmol/g] | High HPO Lot [4] [nmol/g] | Low HPO Lot [4] [nmol/g] |
| --- | --- | --- | --- | --- | --- | --- | --- | --- |
| Tetraglycol [Tetraglycol (TG)] | 1.55 | dissolved | dissolved | partially | not dissolved |  |  |  |
| OC[C@H]1O[C@@H](O[C@H]2[C@H](O)[C@@H](O)C(O)O[C@@H]2CO)[C@H](O)[C@@H](O)[C@H]1O (some centres unmarked) [Lactose] |  |  |  |  |  | <10 | 10 | <10 |
| OC[C@H]1O[C@@](CO)(O[C@H]2O[C@H](CO)[C@@H](O)[C@H](O)[C@H]2O)[C@@H](O)[C@@H]1O [Sucrose] |  |  |  |  |  | <10 | 20 | <10 |
| OC[C@@H](O)[C@@H](O)[C@H](O)[C@H](O)CO [Mannitol] |  |  |  |  |  | <10 | <10 | <10 |
